Source: PubChem BioAssay AID652032 (The Scripps Research Institute Molecular Screening Center, 2013)
pIC50: −log10 of the molar value.

The compounds below were run against Kappa-type opioid receptor (Homo sapiens) (UniProt P41145) (assay: kappa opioid receptor antagonism potency – cell-based, fluorescence, dose response, late-stage follow-up (AID 652032)). Details: OPRK1-expressing cells, fluorescence antagonist read-out; cut-off not given, nearly all actives have IC50 up to about 8.7 µM.
Kappa-type opioid receptor (Homo sapiens), sequence (P41145 whole entry, looked up): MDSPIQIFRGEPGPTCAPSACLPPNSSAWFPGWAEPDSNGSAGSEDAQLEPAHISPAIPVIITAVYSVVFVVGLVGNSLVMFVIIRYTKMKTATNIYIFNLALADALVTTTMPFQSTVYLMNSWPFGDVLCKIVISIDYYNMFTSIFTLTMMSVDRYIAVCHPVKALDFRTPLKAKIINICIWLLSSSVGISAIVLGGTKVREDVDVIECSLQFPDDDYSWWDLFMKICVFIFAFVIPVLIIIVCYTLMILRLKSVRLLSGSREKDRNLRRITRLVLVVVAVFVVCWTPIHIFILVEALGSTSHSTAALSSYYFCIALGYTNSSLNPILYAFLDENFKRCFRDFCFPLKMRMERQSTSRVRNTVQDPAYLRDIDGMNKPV

pIC50, active:
O=C(O)c1cc(Br)cnc1N1CCC(NC2CCCCC2)CC1 5.28
COC(=O)c1cc(Br)cnc1N1CCC(NC2CCCC2)CC1 6.92
COC(=O)c1cc(F)cnc1N1CCC(NC2CCCCC2)CC1 5.18
COC(=O)c1cccnc1N1CCC(NC2CCCCC2)C(O)C1 (configuration not stated) 5.66
CCOC(=O)c1cc(C(=O)OC)c(C)nc1N1CCC(NC2CCCCC2)CC1 5.59
COC(=O)c1cc(Br)cnc1N1CCC(NCCO)CC1 5.04
COC(=O)c1cc(Br)cnc1N1CCC(CNC2CCCCC2)CC1 5.46
COC(=O)c1cc(Br)cnc1N1CCC(NC2CCCCC2)CC1 6.88
COC(=O)c1cc(Br)cnc1N1CCC(N)C(O)C1 (configuration not stated) 5.23
COC(=O)c1cc(Br)cnc1N1CCC(N(C)C2CCCCC2)CC1 5.57
COC(=O)c1cc(Br)cnc1N1CCC(NC2CCCC(O)C2)CC1 (configuration not stated) 6.19
COC(=O)c1cc(NC(C)=O)cnc1N1CCC(NC2CCCCC2)CC1 6.20
COC(=O)c1cc(Br)cnc1N1CCC(N[C@@H]2CCCC[C@H]2O)CC1 6.64
COC(=O)c1cc(Cl)cnc1N1CCC(NC2CCCCC2)CC1 6.80
CC(C)OC(=O)c1cc(Br)cnc1N1CCC(NC2CCCCC2)CC1 6.40
COC(=O)c1cc(Br)cnc1N1CCC(NC2CCOCC2)CC1 6.21
COC(=O)c1cc(Br)cnc1N1CCC(NC2CCCCC2OC)CC1 (configuration not stated) 6.57
COC(=O)c1cc(Br)cnc1N1CCC(NC2CCCCCC2)CC1 6.96
COC(=O)c1cc(Br)cnc1N1CCC(NC2CCCCC2)C1 (configuration not stated) 6.73
COC(=O)c1cc(Br)cnc1N1CCC(N[C@H](C)C2CCCCC2)CC1 5.17
COC(=O)c1cc(Br)cnc1N1CCC(NC2CCC(C)CC2)CC1 (configuration not stated) 6.27
COC(=O)c1cc(I)cnc1N1CCC(NC2CCCCC2)CC1 7.10
